Assay results as given in article PMC10604444, “Extra-Synaptic GABAA Receptor Potentiation and Neurosteroid-Induced Learning Deficits Are Inhibited by GR3027, a GABAA Modulating Steroid Antagonist” (Biomolecules, 2023).

Tested on: male Wistar rats
Assay: Morris water maze (MWM) learning and spatial memory
Format: in vivo, rat
Conditions: GR3027 alone 11 mg/kg i.v.
Procedure: Animals: Male Wistar rats were used to study the effect of AP on learning and spatial memory (Scanbur BK, Sweden). The rats were marked on the tail with a permanent spray (Porcimark™) for identification. A 12/12 h light/dark cycle was used (lights off at 18.00 h), food and water were available ad libitum, and the housing room temperature was kept at 22–23 °C. Animal testing was performed during the light part of the day. After arrival at the animal facility, the handling of all rats was performed for two weeks, including habituation to all relevant experimental procedures. […]
Spatial memory: Spatial memory was assessed using the Morris water maze (MWM), as previously described in detail, and in brief as follows. […] MWM parameters (latency, path, swimming speed, floating, and thigmotaxis) were monitored and quantified using the computer tracking system Menu 2020 (HVS Image, UK). […]
Substances and treatments: AP (3α-OH-5α-pregnan-20-one; 2.0 mg/mL; Umecrine AB, Sweden) and GR3027 (3α-ethynyl-3β-hydroxyl-5α-androstan-17-oxime; 2.0 mg/mL; Umecrine Cognition AB, Stockholm, Sweden) were dissolved in 10% 2-hydroxypropyl-beta-cyclodextrin (β-CD; Sigma, St. Louis, MO, USA) using ultrasound. The various combination treatments were then prepared by mixing these solutions in calculated proportions (Table 1). […]

## C#C[C@]1(O)CC[C@@]2(C)[C@@H](CC[C@@H]3[C@@H]2CC[C@]2(C)/C(=N/O)CC[C@@H]32)C1 [GR3027, 3α-ethynyl-3β-hydroxyl-5α-androstan-17-oxime]
P < 0.05
  Swim speed vs groups treated with AP or AP:GR3027 combinations: lower
P > 0.05
  Swim speed vs vehicle group: no different
